Data published in patent publication US20050208125A1, “Substantially pure solid form of the enol tautomer of 3-indolypyruvic acid for use in the treatmetn of central nervous system disturbances” (priority 2002, published 2005).
Read-outs that look alike come from different tables or passages of the source. Blank lines part the entries; values can stand above or below the compound they belong to.

How the values were obtained:
superoxide anion = assay: Neutralizing power towards oxygen free radicals; format: biochemical; settings: contrarily to the keto tautomer form
Experimental: (§1) It is already known from literature that the 3-indolylpyruvic acid may function, in suitable methabolic situations, as direct precursor to the kynurenic acid, the most important endogenous inhibitor of the excitatory amino acids. […] Therefore, comparison tests were conducted between the enol form of 3-indolylpyruvic acid, obtained according to the method described above in examples 1 and 2, the keto form (obtained solubilizing a standard preparation of 3-indolylpyruvic acid obtained from commercial sources in 0.1M NaOH), and a mixture of the two forms (obtained solubilizing the above standard preparation in a pH 7.4 phosphate buffer). […] Moreover, the enol form is found to be 100 to 1000 times more powerful than the keto one, both in protecting membrane phospholipids from degradation and in blocking luminol chemiluminescence induced by a xanthin/xanthin oxidase mixture. Concerning the formation of kynurenic acid, under the same experimental conditions the enol form of 3-indolylpyruvic acid always produced from 20 to 100 times more kynurenic acid than the keto form or the mixture of the two forms. […] Concomitantly, kynurenic acid began to form, reaching a plasma peak at +90-+180 min from the enol injection, with remarkable interindividual variations.

[1] = Incubation in rat tissue homogenates, enol form versus keto form; format: in vitro ADME
Description: (§2) The near-pure enol tautomer of 3-indolylpyruvic acid, obtained by the method described above in examples 1 and 2, was investigated on rat tissue homogenates, in order to highlight its participation in the methabolic pathways characterizing the use of tryptophan and of its derivatives in mammalian cells. […] This phenomenon, ascribed to the presence in biological fluids of a specific tautomerase already reported in literature, allows the enol form to be subjected to biochemical transformations by specific enzymes active on the indoles. In particular, when the enol form of the ketoacid is incubated in rat liver homogenates, a gradual transformation of the enol of 3-indolylpyruvic acid in tryptophan is observed: the transformation is rather linear in time, is independent from the pH—at least in the 6.5÷7.5 interval—and it leads to the conversion of over the 50% of the ketoacid in 5 hours.

[2] = test system: Human melanoma cells (A2058 line); assay: Melanoma cell invasion through Matrigel; format: cell-based; settings: mean of three experiments ± SD
Description: Matrigel is an extracellular biological matrix extracted from the Englebreth-Holm-Swarm murine sarcoma, composed of the major components of the basement membrane like laminin, entactin, collagen IV and proteoglycans. At room temperature, Matrigel forms a gel that can promote the growth of primary and continuous cell lines, and moreover can act as medium (substrate) for the adhesion, the differentiation, the migration and the invasion of tumor cell lines. Due to such features, a Matrigel test is commonly used in order to characterize the activity of substances capable of interfering with the motility of tumor cells and of inflammatory response cells. The test is conducted in wells partitioned by an 8 micron pore size membrane: Matrigel (12.4 micrograms) is uniformly spread on the membrane, whereas a chemoattractant (600 microliters), consisting of the supernatant of a murine hembryo cell line (3T3) is inserted in the bottom section of the well. The cells to be tested are seeded in the top section of the well, whereas the compounds that could interfere with their motility are placed above as well as below the membrane, so as to prevent the formation of a concentration gradient. At the end of the experiment, the cells that have crossed the membrane are counted.
Human melanoma cells (A2058 line) were cultured in MEM medium, in a 5% CO2 at 37° C. Having reached the desired growth level, the (100.000) cells were seeded in the top section of the well. The enol of 3-indolylpyruvic acid and its salts, solubilized in the cell culture medium were placed in the top and bottom section of the well.

[3] = test system: LAN5 human neuroblastoma cells; assay: Neuronal cell sprouting (neurite length); format: cell-based; settings: 10 μM, 7 days; for average length of the neurites: ± SD, untreated 21.8 ± 8.8
Experimental: LAN5 human neuroblastoma cells were seeded in 6-well plates (25.000 cells/well) in DMEM (Dulbecco's Modified Eagle's Medium) medium, additioned with 10% -fetal serum and 40 micrograms/ml gentamycin. After 24 hours, the enol tautomer of 3-indolylpyruvic acid or its derivatives, at an end concentration of 10 μM was added to the culture medium. The treatment was continued for 7 days, with medium replacement and addition of the compound under test every three days. At +7 days the cells were photopgraphed, using a Leitz Dialux 20 microscope. Then, neurite length was measured.
The results, reported in the following Table, express, in microns, the average length of the neurites for each treatment; ± is the standard deviation: […]

rats = assay: Pharmacological tests in rats, oral and IP; format: in vivo, rat
[4] = Solubility of the enol form in solvents; format: physicochemical
[5] = Intravenous injection in baboons, enol and kynurenic acid plasma kinetics; format: in vivo, baboon; settings: intravenously, 200 mg/Kg
Experimental: as §1

[6] = Stability of the enol form in solution (UV 325 nm peak, HPLC); format: physicochemical
Description: When the enol tautomer of 3-indolylpyruvic acid is solubilized in an aqueous environment, the decline of the UV peak at 325 nm, more or less quick according to the solution temperature, the pH and the type of buffer used is immediately observed. […] In the experimental conditions used, a quicker disappearance of the 325 nm peak is observed when the enol tautomer of the ketoacid is solubilized in diluted NaOH solutions; it follows that in this solvent the keto-enol equilibrium shifts towards the keto form in a few seconds.
At longer incubation times also the gem-diole form disappears, without giving rise to the keto form.
In particular, using a phosphate solution at pH 7.4, it is observed that the enol form drops to the 44% already at +30 min, whereas the gem-diole form begins to predominate (increase) at +1 hour (44% vs 23%), yet it stabilizes at about +2 hours (49%), and then gradually declines.

[7] = Incubation in rat liver homogenates; format: in vitro ADME
Description: as §2, with “a gradual transformation of the enol of 3-indolylpyruvic acid in tryptophan is observed: the transformation” left out

[8] = Plasma levels in dogs after administration in food-mixed pellets; format: in vivo; settings: dog, oral
Experimental: In dogs as well analogous results were obtained, as the administration (in food-mixed pellets) of 100 mg/Kg enol form of 3-indolylpyruvic acid led, at +1 hour, to plasma rates of 106±47 -mcg/ml in acute, and of 97±17 mcg/ml in chronic. 285 mg/Kg doses produced, at +1 hour,concentrations of 136±17 mcg/ml in acute, and of 120±8 mcg/ml in chronic.

[9] = Plasma levels in rats after gastric lavage; format: in vivo; settings: rat, oral, read-out: plasma level
Experimental: Raising the dose to 400 mg/Kg, values of 160±13 mcg/ml for acute administration and of 189±68 mcg/ml for chronic administration were obtained.

[10] = cited from earlier work
[11] = phosphate solution pH 7.4, +1 hour

stability in slightly alkaline buffer environments ([1]; pH 7.4, rat tissue homogenates): good stability
solubility in acetone ([4]; acetone): highly soluble
solubility in chloroform ([4]; chloroform): wholly insoluble
solubility in ethanol ([4]; ethanol): highly soluble
solubility in ethyl ether ([4]; ethyl ether): slightly soluble
solubility in methanol ([4]; methanol): highly soluble
solubility in water ([4]; water): wholly insoluble
time in which keto-enol equilibrium shifts towards the keto form ([6]; diluted NaOH solutions): a few seconds
stability in methanol ([6]; methanol, several days at room temperature): extremely stable
enol form remaining ([6]; phosphate solution pH 7.4, +30 min): 44%
enol form remaining [6, 11]: 23%
gem-diole form formed [6, 11]: 44%
gem-diole form formed ([6]; phosphate solution pH 7.4, about +2 hours): ~49%
transformation into 3-indolyl-lactic acid [7]: No transformation
concentration at 1 h ([8]; 100 mg/kg, chronic, read-out: plasma rate): 97 ± 17 µg/mL
concentration at 1 h ([8]; 100 mg/kg, food-mixed pellets, 100 mg/Kg, acute, read-out: plasma rate): 106 ± 47 µg/mL
concentration at 1 h ([8]; 285 mg/kg, acute, read-out: plasma concentration): 136 ± 17 µg/mL
concentration at 1 h ([8]; 285 mg/kg, chronic, read-out: plasma concentration): 120 ± 8 µg/mL
concentration at 1 hour ([9]; 100 mg/kg, chronic): 183 ± 78 µg/mL
concentration at 1 h ([9]; 100 mg/kg, gastric lavage, 100 mg/Kg, acute, +1 hour): 74 ± 14 µg/mL
concentration at 1 hour ([9]; 400 mg/kg, acute): 160 ± 13 µg/mL
concentration at 1 hour ([9]; 400 mg/kg, chronic): 189 ± 68 µg/mL
Structure (SMILES): O=C(O)/C(O)=C/c1c[nH]c2ccccc12 [3-IPA ENOL, enol tautomer of 3-indolylpyruvic acid]
neutralizing power towards superoxide anion and hydroxyl ions (superoxide anion): strong neutralizing power
inhibition at 125 µM ([2]; Homo sapiens, 125 μM): 44 ± 5%
inhibition at 250 µM ([2]; Homo sapiens, 250 μM): 77 ± 11%
inhibition at 500 µM ([2]; Homo sapiens, 500 μM): 97 ± 2%
average length of the neurites [3]: 31.9 ± 6.8 micrometers
observed effects compared with the mixture of the two tautomers (rats; mixture in pH 7.4 phosphate buffer): clearly superior
pharmacological properties on the cardiovasculary system (rats; orally and by IP injection): pressure reduction in hypertensive rats, but not in normotensive rats
pharmacological properties on the central nervous system (rats; orally and by IP injection): prolongation of sleep, central analgesia, protection from NMDA-induced convulsions, reduction of toxic effects from opiates, anxiolytic and antidepressant effects, stress inhibition
enol plasma concentration curve [5]: remaining at clearly detectable levels for a few hours

Structure (SMILES): O=C(O)Cc1c[nH]c2ccccc12 [3-Indolylacetic acid, reference compound]
effect on neurite length (in words) [3]: do not influence neurite length
average length of the neurites [3]: 23.3 ± 10.5 micrometers

Structure (SMILES): O=C(O)C(O)Cc1c[nH]c2ccccc12 (centres unmarked) [3-Indolyllactic acid]
effect on neurite length (in words) [3]: noticeable effects on neurite length
average length of the neurites [3]: 39.7 ± 11.8 micrometers

Structure (SMILES): O=C(O)C(=O)Cc1c[nH]c2ccccc12 [3-indolylpyruvic acid]
time in which UV spectrum of the enol tautomer converted to that of the keto tautomer ([10]; Schwarz 1961): over 2 hours
time in which largely converted to the keto form ([10]; solution at pH 8.0, Schwarz and Bitancourt 1960): 20 min

Structure (SMILES): O=C(O)Cc1c[nH]c2ccc(O)cc12 [5-Hydroxy-Indolylacetic acid, reference compound]
effect on neurite length (in words) [3]: do not influence neurite length
average length of the neurites [3]: 25.7 ± 13.2 micrometers

Structure (SMILES): O=C([O-])C(O)=Cc1c[nH]c2ccccc12.O=C([O-])C(O)=Cc1c[nH]c2ccccc12.[Ca+2] [Ca salt, calcium salt of the enol form of 3-indolylpyruvic acid]
Inhibition % ([2]; 70 μM): 38 ± 10%
Inhibition % ([2]; 140 μM): 82 ± 6%
average length of the neurites [3]: 32.7 ± 8.3 micrometers

Structure (SMILES): O=C([O-])C(O)=Cc1c[nH]c2ccccc12.[K+] [K salt, potassium salt of the enol tautomer of 3-indolylpyruvic acid]
Inhibition % ([2]; 125 μM): 51 ± 3%
Inhibition % ([2]; 250 μM): 78 ± 3%
average length of the neurites [3]: 44.1 ± 12.1 micrometers

Structure (SMILES): O=C([O-])C(O)=Cc1c[nH]c2ccccc12.[Li+] [Li salt, lithium salt of the enol tautomer of 3-indolylpyruvic acid]
Inhibition % ([2]; 125 μM): 48 ± 7%
Inhibition % ([2]; 250 μM): 91 ± 5%
average length of the neurites [3]: 29.4 ± 8.5 micrometers

Structure (SMILES): O=C([O-])C(O)=Cc1c[nH]c2ccccc12.O=C([O-])C(O)=Cc1c[nH]c2ccccc12.[Mg+2] [Mg salt, magnesium salt of the enol form of 3-indolylpyruvic acid]
Inhibition % ([2]; 65 μM): 46 ± 14%
Inhibition % ([2]; 130 μM): 66 ± 7%
average length of the neurites [3]: 40.1 ± 17.5 micrometers

Structure (SMILES): O=C([O-])C(O)=Cc1c[nH]c2ccccc12.[Na+] [Na salt, sodium salt of the enol form of 3-indolylpyruvic acid]
Inhibition % ([2]; 125 μM): 52 ± 1%
Inhibition % ([2]; 250 μM): 78 ± 3%
average length of the neurites [3]: 28.3 ± 16.4 micrometers

transformation to tryptophan or to 3-indolyl-lactic acid ([1]; rat tissue homogenates): no significant transformations
Structure (SMILES): O=C(O)C(=O)Cc1c[nH]c2ccccc12 [keto form, reference compound]
effects on the considered pharmacological parameters (rats; keto form solubilized in 0.1M NaOH): no apparent effects
